From patent US12497402B2, “IRAK4 degraders and uses thereof” (priority 2021, dated 2025)
Where “and” joins values, the source holds several entries; their conditions need not be identical. Equal entries are not always repeated.

Legend:
[1] = in vivo; settings: dog
Source text: The vehicle was HPBCD (Kleptose Oral Grade HPB) prepared in reverse osmosis water.
Assessment of toxicity was based on mortality, clinical observations, body weights, food consumption, ophthalmic observations, electrocardiographic (ECG) measurements, and clinical and anatomic pathology. Blood samples were collected for toxicokinetic evaluation.

[2] = molecular target: T1, breast cancer resistance protein (BCRP) (Homo sapiens, UniProt Q9UNQ0); assay: BCRP substrate assessment in vitro; format: in vitro ADME
T1 sequence (Q9UNQ0 1-655): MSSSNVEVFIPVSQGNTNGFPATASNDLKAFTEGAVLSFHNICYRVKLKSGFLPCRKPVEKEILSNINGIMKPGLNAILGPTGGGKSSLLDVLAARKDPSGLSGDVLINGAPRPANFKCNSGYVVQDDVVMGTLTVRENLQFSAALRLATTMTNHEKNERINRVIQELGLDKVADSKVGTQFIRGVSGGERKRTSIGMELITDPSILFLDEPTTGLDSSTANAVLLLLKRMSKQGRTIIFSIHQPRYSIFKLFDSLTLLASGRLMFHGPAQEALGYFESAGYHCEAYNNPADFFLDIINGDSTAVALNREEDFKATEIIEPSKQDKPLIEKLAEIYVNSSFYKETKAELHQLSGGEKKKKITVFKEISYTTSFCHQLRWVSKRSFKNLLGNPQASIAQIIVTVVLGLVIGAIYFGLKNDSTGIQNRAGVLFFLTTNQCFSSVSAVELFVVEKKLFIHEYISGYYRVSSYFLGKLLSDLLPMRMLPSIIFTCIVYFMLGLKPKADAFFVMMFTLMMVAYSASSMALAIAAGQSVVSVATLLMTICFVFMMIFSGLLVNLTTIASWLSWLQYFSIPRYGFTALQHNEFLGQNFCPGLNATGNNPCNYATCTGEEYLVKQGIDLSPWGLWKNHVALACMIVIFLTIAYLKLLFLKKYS

[3] = molecular target: P-glycoprotein (P-gp) (Homo sapiens, UniProt P08183); assay: P-gp substrate assessment in vitro; format: in vitro ADME
Sequence of P-glycoprotein (P-gp) (P08183 whole entry): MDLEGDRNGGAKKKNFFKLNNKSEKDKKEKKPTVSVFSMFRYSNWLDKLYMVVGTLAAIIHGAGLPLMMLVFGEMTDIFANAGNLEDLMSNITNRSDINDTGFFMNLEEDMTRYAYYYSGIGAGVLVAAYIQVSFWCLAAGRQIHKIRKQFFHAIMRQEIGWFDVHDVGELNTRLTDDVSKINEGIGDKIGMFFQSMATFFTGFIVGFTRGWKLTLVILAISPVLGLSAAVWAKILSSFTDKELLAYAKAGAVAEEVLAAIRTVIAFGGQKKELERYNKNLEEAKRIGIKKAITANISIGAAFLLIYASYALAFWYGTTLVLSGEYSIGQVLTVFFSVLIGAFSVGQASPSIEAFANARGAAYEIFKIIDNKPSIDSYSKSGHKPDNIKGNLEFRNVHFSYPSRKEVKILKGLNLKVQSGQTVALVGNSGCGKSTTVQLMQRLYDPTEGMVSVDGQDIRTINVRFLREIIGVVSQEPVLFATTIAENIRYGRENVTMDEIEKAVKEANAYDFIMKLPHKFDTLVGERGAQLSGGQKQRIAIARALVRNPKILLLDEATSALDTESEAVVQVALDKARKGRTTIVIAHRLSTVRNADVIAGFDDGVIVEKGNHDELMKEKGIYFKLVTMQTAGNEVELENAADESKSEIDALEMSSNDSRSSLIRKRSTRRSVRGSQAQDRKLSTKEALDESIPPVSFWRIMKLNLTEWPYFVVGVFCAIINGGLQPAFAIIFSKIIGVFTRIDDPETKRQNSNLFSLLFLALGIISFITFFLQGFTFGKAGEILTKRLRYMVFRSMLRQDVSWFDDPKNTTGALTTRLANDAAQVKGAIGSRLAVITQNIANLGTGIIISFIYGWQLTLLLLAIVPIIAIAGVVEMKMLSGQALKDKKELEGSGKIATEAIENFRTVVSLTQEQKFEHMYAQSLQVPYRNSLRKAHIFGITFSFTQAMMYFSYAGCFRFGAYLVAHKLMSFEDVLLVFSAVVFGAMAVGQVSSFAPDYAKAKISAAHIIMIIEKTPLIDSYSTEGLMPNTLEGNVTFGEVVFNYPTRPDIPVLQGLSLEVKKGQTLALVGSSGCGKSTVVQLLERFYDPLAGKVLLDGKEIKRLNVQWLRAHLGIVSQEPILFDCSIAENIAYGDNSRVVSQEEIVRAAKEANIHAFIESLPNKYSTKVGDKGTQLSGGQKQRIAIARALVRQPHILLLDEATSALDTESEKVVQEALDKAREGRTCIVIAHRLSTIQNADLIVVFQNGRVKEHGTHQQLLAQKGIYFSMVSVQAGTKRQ

[4] = test system: TLR agonist (lipopolysaccharide and R848) and IL-1β-induced proinflammatory cytokine production; assay: In vitro cytokine release assays in PBMCs; format: cell-based; settings: R848 and IL-1β stimulation, IL-6, TNF-α, GM-CSF, IL-8
[5] = Distribution studies in rats; format: in vivo, rat
[6] = Plasma protein binding; format: in vitro ADME; settings: across nonclinical species and humans
[7] = 4-week oral gavage toxicity study with Compound A in dogs with 2-week recovery; format: in vivo; settings: for Reversal of vacuolated macrophages at recovery sacrifice: 30 or 200/60 mg/kg/dose
[8] = molecular target: CYP3A4 (Homo sapiens, UniProt P08684); assay: In vitro drug-drug interaction study, CYP3A4; format: in vitro ADME
Sequence of CYP3A4 (P08684 whole entry): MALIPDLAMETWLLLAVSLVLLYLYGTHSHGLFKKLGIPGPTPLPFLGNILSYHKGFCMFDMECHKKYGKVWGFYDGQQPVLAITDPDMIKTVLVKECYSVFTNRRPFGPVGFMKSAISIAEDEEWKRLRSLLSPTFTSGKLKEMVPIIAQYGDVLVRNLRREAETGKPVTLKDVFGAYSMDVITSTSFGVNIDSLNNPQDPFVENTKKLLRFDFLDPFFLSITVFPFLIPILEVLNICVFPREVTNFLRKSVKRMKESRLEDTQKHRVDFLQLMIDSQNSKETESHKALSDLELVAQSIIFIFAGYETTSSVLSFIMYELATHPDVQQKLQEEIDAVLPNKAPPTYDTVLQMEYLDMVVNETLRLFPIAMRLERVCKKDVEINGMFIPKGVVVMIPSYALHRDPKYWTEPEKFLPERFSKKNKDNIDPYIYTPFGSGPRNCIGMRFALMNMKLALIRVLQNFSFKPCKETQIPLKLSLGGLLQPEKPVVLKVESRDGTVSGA

[9] = Permeability; format: in vitro ADME
[10] = Red blood cell partitioning; format: in vitro ADME
[11] = molecular target: T2, BCRP (Homo sapiens, UniProt Q9UNQ0); assay: In vitro drug-drug interaction study, BCRP efflux; format: in vitro ADME
T2 sequence (Q9UNQ0 1-655): T1 sequence (Q9UNQ0 1-655)

[12] = In vivo pharmacokinetic studies in rats, dogs and monkeys
[13] = test system: cytochrome P450 (CYP); assay: In vitro and in vivo metabolism studies; format: in vitro ADME
[14] = molecular target: CYP2C19 (Homo sapiens, UniProt P33261); assay: In vitro drug-drug interaction study, CYP2C19; format: in vitro ADME
Sequence of CYP2C19 (P33261 whole entry): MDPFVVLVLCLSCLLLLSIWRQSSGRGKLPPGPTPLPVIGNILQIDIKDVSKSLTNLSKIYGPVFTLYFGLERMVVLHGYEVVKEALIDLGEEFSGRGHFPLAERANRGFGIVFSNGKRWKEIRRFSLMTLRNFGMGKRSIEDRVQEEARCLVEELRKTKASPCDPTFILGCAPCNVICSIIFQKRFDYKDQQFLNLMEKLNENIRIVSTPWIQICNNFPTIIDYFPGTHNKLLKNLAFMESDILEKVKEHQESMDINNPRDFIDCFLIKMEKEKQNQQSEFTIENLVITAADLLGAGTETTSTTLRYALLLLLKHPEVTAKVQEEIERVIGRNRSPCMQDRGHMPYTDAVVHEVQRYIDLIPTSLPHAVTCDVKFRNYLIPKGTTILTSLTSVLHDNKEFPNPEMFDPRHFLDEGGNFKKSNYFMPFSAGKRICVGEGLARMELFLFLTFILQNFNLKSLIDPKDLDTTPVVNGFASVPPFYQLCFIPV

[15] = test system: imiquimod psoriasis model (TLR 7/8-dependent); assay: Imiquimod psoriasis model; format: in vivo, mouse
[16] = Excretion study in bile duct-cannulated (BDC) rats; format: in vivo, rat
[17] = test system: MSU-crystal induced (TLR 2/4-dependent) inflammation; assay: Mouse air pouch model of MSU-crystal induced inflammation; format: in vivo; settings: 3 days twice daily, 30 to 100 mg/kg
[18] = Solubility; format: physicochemical
[19] = both, beagle, in vivo, po, 5 mg/kg, Tmax
[20] = both, beagle, in vivo, po, 5 mg/kg, t1/2
[21] = both, beagle, in vivo, po, 30 mg/kg, Tmax
[22] = both, beagle, in vivo, po, 60 mg/kg, Tmax
[23] = both, beagle, in vivo, po, 100 mg/kg, Tmax
[24] = both, beagle, in vivo, po, 200 mg/kg, Tmax
[25] = both, beagle, in vivo, po, median Tmax
[26] = both, beagle, in vivo, po, 60 mg/kg/day, median Tmax

Cn1c(=O)n([C@@H]2CCC(=O)NC2=O)c2cccc(C#CCOC3CCN(C[C@H]4CC[C@H](n5cc(NC(=O)c6cnn7ccc(N8C[C@H]9C[C@@H]8CO9)nc67)c(C(F)F)n5)CC4)CC3)c21 [Compound C, 5-((1R,4R)-2-oxa-5-azabicyclo[2.2.1]heptan-5-yl)-N-(3-(difluoromethyl)-1-((1r,4R)-4-((4-((3-(1-((R)-2,6-dioxopiperidin-3-yl)-3-methyl-2-oxo-2,3-dihydro-1H-benzo[d]imidazol-4-yl)prop-2-yn-1-yl)oxy)piperidin-1-yl)methyl)cyclohexyl)-1H-pyrazol-4-yl)pyrazolo[1,5-a]pyrimidine-3-carboxamide]
Potential accumulation after multiple doses ([1]; both, beagle, in vivo): ≤ 1.86 fold
Sex differences in mean Cmax and AUC0-24 values ([1]; both, beagle, in vivo): less than 2 fold
Tmax [1, 19]: 4 h
half-life [1, 20]: 7.65 h
Tmax [1, 21]: 4 h
Tmax [1, 22]: 4 h
Tmax ([1]; both, beagle, in vivo, po, 60 mg/kg, median Tmax): 4 h
Tmax [1, 23]: 6 h
Tmax [1, 24]: 4 h
Tmax [1, 25]: 6 h
Dose proportionality of increases in mean Cmax and AUC0-24 ([1]; in vivo): less than dose proportional

Cn1c(=O)n(C2CCC(=O)NC2=O)c2cccc(C#CCOC3CCN(C[C@H]4CC[C@H](n5cc(NC(=O)c6cnn7ccc(N8C[C@H]9C[C@@H]8CO9)nc67)c(C(F)F)n5)CC4)CC3)c21 (stereo partly drawn) [Compound A, 5-((1R,4R)-2-oxa-5-azabicyclo[2.2.1]heptan-5-yl)-N-(3-(difluoromethyl)-1-((1r,4R)-4-((4-((3-(1-(2,6-dioxopiperidin-3-yl)-3-methyl-2-oxo-2,3-dihydro-1H-benzo[d]imidazol-4-yl)prop-2-yn-1-yl)oxy)piperidin-1-yl)methyl)cyclohexyl)-1H-pyrazol-4-yl)pyrazolo[1,5-a]pyrimidine-3-carboxamide]
BCRP substrate status [2]: substrate
P-gp substrate status [3]: substrate
IC50 (inhibition of proinflammatory cytokine production) [4]: low nM range
CNS penetration [5]: limited penetration into the central nervous system (CNS)
Tissue distribution [5]: extensively distributed into tissues
Plasma protein binding [6]: highly bound to plasma proteins
NOAEL at 4 weeks ([7]; both sexes, beagle, dog, in vivo, dogs, oral gavage once daily, 4 weeks, read-out: no observed adverse effect level (NOAEL)): 60 mg/kg/day
Body weight, body weight gain, food consumption ([7]; dog, in vivo): No Compound A-related alterations in mean body weight, body weight gain, or food consumption were noted at any dose level
Clinical and ophthalmic observations ([7]; dog, in vivo): No Compound A-related clinical observations or abnormal ophthalmic observations were noted
ECG observation ([7]; dog, in vivo): No Compound A-related abnormalities were noted during the dosing phase ECG observation
Hematology, coagulation, clinical chemistry, urinalysis ([7]; dog, in vivo): No Compound A-related effects in scheduled hematology, coagulation, clinical chemistry, or urinalysis test results were identified
Organ weights and macroscopic observations ([7]; dog, in vivo): No Compound A-related organ weight differences or macroscopic observations were noted
Microscopic findings (vacuolated macrophages) ([7]; dog, in vivo, 30 mg/kg): increases of vacuolated macrophages in the small intestine, lymphoid tissues, and lung were considered nonadverse
Mortality ([7]; female, beagle, dog, in vivo, 100 mg/kg, 4 day (of dosing phase)): One female administered 100 mg/kg/dose was sacrificed in a moribund condition on Day 4 of the dosing phase
Reversal of vacuolated macrophages at recovery sacrifice ([7]; mesenteric lymph node): lack of reversal after 2 weeks
Reversal of vacuolated macrophages at recovery sacrifice ([7]; small intestine, GALT/Peyer's patches, mandibular lymph nodes, lung, 2-week recovery): partial reversal
Reversal of vacuolated macrophages at recovery sacrifice ([7]; spleen, 2-week recovery): complete reversal
Inhibition of CYP3A4 [8]: potential time dependent inhibition (TDI)
Permeability [9]: moderate permeability
Partitioning into red blood cells [10]: did not significantly partition into red blood cells
Inhibition of BCRP efflux [11]: inhibited BCRP efflux
half-life ([1]; beagle, plasma, po, 30 mg/kg, t1/2, elimination half-life, N = 1, dog plasma, Day 1, Group 3, Cmpd A 30 mg/kg/dose oral gavage): 6.54 h
Potential accumulation after multiple doses ([1]; both, beagle, in vivo): up to 2.14 fold
Sex differences in mean Cmax and AUC0-24 values ([1]; both, beagle, in vivo): less than 2 fold
median Tmax ([1]; both, beagle, in vivo, po): 5.00 to 12.0 h
Tmax [1, 19]: 4 h
Tmax [1, 21]: 5 h and 4 h
Tmax [1, 22]: 6 h
Tmax [1, 26]: 6 h
Tmax [1, 23]: 9 h
Tmax [1, 24]: 12 h
Tmax [1, 25]: 5 to 9 h
half-life ([1]; both, beagle, plasma, po, 5 mg/kg, t1/2, mean elimination half-life, dog plasma, Day 1, Group 2, Cmpd A 5 mg/kg/dose oral gavage): 7.6 h
half-life ([1]; both, beagle, plasma, po, 5 mg/kg, t1/2, mean elimination half-life, dog plasma, Day 8, Group 2, Cmpd A 5 mg/kg/dose oral gavage): 8.08 h
half-life ([1]; both, beagle, plasma, po, 5 mg/kg, t1/2, mean elimination half-life, dog plasma, Day 28, Group 2, Cmpd A 5 mg/kg/dose oral gavage): 8.19 h
half-life ([1]; both, beagle, plasma, po, mean half-life (t1/2), dog plasma, Day 1, range across groups): 6.54 to 7.6 h
Dose proportionality of increases in mean Cmax and AUC0-24 ([1]; in vivo): less than dose proportional
Bioavailability [12]: low to moderate bioavailability
Clearance [12]: moderate to high clearance
Terminal half-life [12]: moderate terminal half-life
Volume of distribution at steady state [12]: high volume of distribution at steady state
Main metabolizing enzyme [13]: primarily metabolized by CYP3A4
Metabolic pathway ([13]; in vitro and in vivo): underwent oxidative metabolism via cytochrome P450 (CYP)
Inhibition of CYP2C19 [14]: potential time dependent inhibition (TDI)
IRAK4 degradation in spleen and skin ([15]; mouse, in vivo): dose-dependent degradation of IRAK4 in the spleen and skin
Skin thickness ([15]; mouse, in vivo): reduction in skin thickness
IL-1β in the skin ([15]; p<0.0001): significant reduction
IL-6 in the skin ([15]; p<0.05, 300 mg/kg only): significant reduction
Biliary and intestinal excretion [16]: minor to moderate biliary and intestinal excretion as parent drug
Renal clearance [16]: negligible renal clearance
IRAK4 levels in the spleen [17]: significantly reduced IRAK4 levels in the spleen
Inflammatory exudate (neutrophils, IL-1β) [17]: significantly reduced the inflammatory exudate
Solubility [18]: low solubility

Cn1c(=O)n([C@H]2CCC(=O)NC2=O)c2cccc(C#CCOC3CCN(C[C@H]4CC[C@H](n5cc(NC(=O)c6cnn7ccc(N8C[C@H]9C[C@@H]8CO9)nc67)c(C(F)F)n5)CC4)CC3)c21 [Compound B, 5-((1R,4R)-2-oxa-5-azabicyclo[2.2.1]heptan-5-yl)-N-(3-(difluoromethyl)-1-((1r,4R)-4-((4-((3-(1-((S)-2,6-dioxopiperidin-3-yl)-3-methyl-2-oxo-2,3-dihydro-1H-benzo[d]imidazol-4-yl)prop-2-yn-1-yl)oxy)piperidin-1-yl)methyl)cyclohexyl)-1H-pyrazol-4-yl)pyrazolo[1,5-a]pyrimidine-3-carboxamide]
Potential accumulation after multiple doses ([1]; both, beagle, in vivo): ≤ 1.98 fold
Sex differences in mean Cmax and AUC0-24 values ([1]; both, beagle, in vivo): less than 2 fold
Tmax [1, 19]: 4 h
half-life [1, 20]: 7.6 h
Tmax [1, 21]: 4 h
Tmax [1, 22]: 4 h
Tmax [1, 26]: 4 h
Tmax [1, 23]: 6 h
Tmax [1, 25]: 6 to 9 h
Dose proportionality of increases in mean Cmax and AUC0-24 ([1]; in vivo): less than dose proportional
